According to ChEMBL document CHEMBL3885881, “DrugMatrix”:

Species on record: Rattus norvegicus
Test: DrugMatrix - Regimen: Daily Repeat
Type: toxicity, organism-based, Sprague-Dawley
Parameters: regimen Daily Repeat, gender Male, age 6-8 weeks
Conditions: in vivo, po, route oral GAVAGE, […]; for ABSOLUTE BASOPHIL / ABSOLUTE EOSINOPHIL / ABSOLUTE LYMPHOCYTE / ABSOLUTE MONOCYTE / ABSOLUTE SEGMENTED NEUTROPHIL / BASOPHIL / EOSINOPHIL / ERYTHROCYTE COUNT / HEMATOCRIT / HEMOGLOBIN / LEUKOCYTE COUNT / LYMPHOCYTE / MEAN CORPUSCULAR HEMOGLOBIN / MEAN CORPUSCULAR HEMOGLOBIN CONCENTRATION / MEAN CORPUSCULAR VOLUME / MONOCYTE / NEUTROPHIL / NUCLEATED RED BLOOD CELLS / PLATELET COUNT: tissue Blood; for ALANINE AMINOTRANSFERASE / ALBUMIN / ALKALINE PHOSPHATASE / ASPARTATE AMINOTRANSFERASE / BLOOD UREA NITROGEN / CARBON DIOXIDE / CHLORIDE / CHOLESTEROL / CREATINE PHOSPHOKINASE / CREATININE / GLUCOSE / LACTATE DEHYDROGENASE / LIPASE / PHOSPHORUS / POTASSIUM / SODIUM / TOTAL BILIRUBIN / TOTAL PROTEIN / URIC ACID: tissue Plasma
[1] = 3 mg/kg, 120 h, dose level Low, time 5 day
[2] = 775 mg/kg, 72 h, dose level High, time 3 day
[3] = 775 mg/kg, 120 h, dose level High, time 5 day

SMILES: CS(=O)(=O)c1ccc(C2=C(c3ccccc3)C(=O)OC2)cc1 [ROFECOXIB]
- ABSOLUTE BASOPHIL [1]: 0 CELLS/uL
- ABSOLUTE EOSINOPHIL [1]: 0 CELLS/uL
- ABSOLUTE LYMPHOCYTE [1]: 7546 CELLS/uL
- ABSOLUTE MONOCYTE [1]: 71.67 CELLS/uL
- ABSOLUTE SEGMENTED NEUTROPHIL [1]: 782.33 CELLS/uL
- BASOPHIL [1]: 0%
- EOSINOPHIL [1]: 0%
- ERYTHROCYTE COUNT [1]: 5.17 x10E6/uL
- HEMATOCRIT [1]: 33.27%
- HEMOGLOBIN [1]: 13.07 G/DL
- LEUKOCYTE COUNT [1]: 8.4 x10E3/uL
- LYMPHOCYTE [1]: 90.67%
- MEAN CORPUSCULAR HEMOGLOBIN [1]: 25.27 pg
- MEAN CORPUSCULAR HEMOGLOBIN CONCENTRATION [1]: 39.27 G/DL
- MEAN CORPUSCULAR VOLUME [1]: 64.33 fL
- MONOCYTE [1]: 1%
- NEUTROPHIL [1]: 8.33%
- NUCLEATED RED BLOOD CELLS [1]: 0 /100WBC
- PLATELET COUNT [1]: 1212.67 x10E3/uL
- ALANINE AMINOTRANSFERASE [1]: 57.33 u/L
- ALBUMIN [1]: 4.17 G/DL
- ALKALINE PHOSPHATASE [1]: 300.67 u/L
- ASPARTATE AMINOTRANSFERASE [1]: 85.67 u/L
- BLOOD UREA NITROGEN [1]: 12.33 mg/dL
- CARBON DIOXIDE [1]: 27.67 mmol/L
- CHLORIDE [1]: 100.67 MEQ/L
- CHOLESTEROL [1]: 62 mg/dL
- CREATINE PHOSPHOKINASE [1]: 325.33 u/L
- CREATININE [1]: 0.22 mg/dL
- GLUCOSE [1]: 165 mg/dL
- LACTATE DEHYDROGENASE [1]: 77 u/L
- LIPASE [1]: 11.33 u/L
- PHOSPHORUS [1]: 9.4 mg/dL
- POTASSIUM [1]: 6.14 MEQ/L
- SODIUM [1]: 145.9 MEQ/L
- TOTAL BILIRUBIN [1]: 0.13 mg/dL
- TOTAL PROTEIN [1]: 6.1 G/DL
- URIC ACID [1]: 0.73 mg/dL
- ABSOLUTE BASOPHIL [2]: 0 CELLS/uL
- ABSOLUTE EOSINOPHIL [2]: 0 CELLS/uL
- ABSOLUTE LYMPHOCYTE [2]: 11625.33 CELLS/uL
- ABSOLUTE MONOCYTE [2]: 298.67 CELLS/uL
- ABSOLUTE SEGMENTED NEUTROPHIL [2]: 1009.33 CELLS/uL
- BASOPHIL [2]: 0%
- EOSINOPHIL [2]: 0%
- ERYTHROCYTE COUNT [2]: 5.13 x10E6/uL
- HEMATOCRIT [2]: 32.27%
- HEMOGLOBIN [2]: 12.53 G/DL
- LEUKOCYTE COUNT [2]: 12.93 x10E3/uL
- LYMPHOCYTE [2]: 90%
- MEAN CORPUSCULAR HEMOGLOBIN [2]: 24.43 pg
- MEAN CORPUSCULAR HEMOGLOBIN CONCENTRATION [2]: 38.83 G/DL
- MEAN CORPUSCULAR VOLUME [2]: 62.93 fL
- MONOCYTE [2]: 2.33%
- NEUTROPHIL [2]: 7.67%
- NUCLEATED RED BLOOD CELLS [2]: 0.33 /100WBC
- PLATELET COUNT [2]: 877.67 x10E3/uL
- ALANINE AMINOTRANSFERASE [2]: 55.33 u/L
- ALBUMIN [2]: 3.53 G/DL
- ALKALINE PHOSPHATASE [2]: 313.67 u/L
- ASPARTATE AMINOTRANSFERASE [2]: 81.33 u/L
- BLOOD UREA NITROGEN [2]: 14.33 mg/dL
- CARBON DIOXIDE [2]: 26.67 mmol/L
- CHLORIDE [2]: 99.33 MEQ/L
- CHOLESTEROL [2]: 77.67 mg/dL
- CREATINE PHOSPHOKINASE [2]: 192.67 u/L
- CREATININE [2]: 0.21 mg/dL
- GLUCOSE [2]: 185.67 mg/dL
- LACTATE DEHYDROGENASE [2]: 91.33 u/L
- LIPASE [2]: 22.33 u/L
- PHOSPHORUS [2]: 10.4 mg/dL
- POTASSIUM [2]: 5.68 MEQ/L
- SODIUM [2]: 144.1 MEQ/L
- TOTAL BILIRUBIN [2]: 0.1 mg/dL
- TOTAL PROTEIN [2]: 5.6 G/DL
- URIC ACID [2]: 0.87 mg/dL
- ABSOLUTE BASOPHIL [3]: 0 CELLS/uL
- ABSOLUTE EOSINOPHIL [3]: 72.67 CELLS/uL
- ABSOLUTE LYMPHOCYTE [3]: 8378 CELLS/uL
- ABSOLUTE MONOCYTE [3]: 35.33 CELLS/uL
- ABSOLUTE SEGMENTED NEUTROPHIL [3]: 1314 CELLS/uL
- BASOPHIL [3]: 0%
- EOSINOPHIL [3]: 0.67%
- ERYTHROCYTE COUNT [3]: 4.79 x10E6/uL
- HEMATOCRIT [3]: 30.33%
- HEMOGLOBIN [3]: 11.77 G/DL
- LEUKOCYTE COUNT [3]: 9.8 x10E3/uL
- LYMPHOCYTE [3]: 84%
- MEAN CORPUSCULAR HEMOGLOBIN [3]: 24.53 pg
- MEAN CORPUSCULAR HEMOGLOBIN CONCENTRATION [3]: 38.8 G/DL
- MEAN CORPUSCULAR VOLUME [3]: 63.33 fL
- MONOCYTE [3]: 0.67%
- NEUTROPHIL [3]: 14.67%
- NUCLEATED RED BLOOD CELLS [3]: 0 /100WBC
- PLATELET COUNT [3]: 1142 x10E3/uL
- ALANINE AMINOTRANSFERASE [3]: 51 u/L
- ALBUMIN [3]: 3.33 G/DL
- ALKALINE PHOSPHATASE [3]: 298.67 u/L
- ASPARTATE AMINOTRANSFERASE [3]: 77.33 u/L
- BLOOD UREA NITROGEN [3]: 12.67 mg/dL
- CARBON DIOXIDE [3]: 28 mmol/L
- CHLORIDE [3]: 99.67 MEQ/L
- CHOLESTEROL [3]: 80 mg/dL
- CREATINE PHOSPHOKINASE [3]: 192.67 u/L
- CREATININE [3]: 0.34 mg/dL
- GLUCOSE [3]: 160.67 mg/dL
- LACTATE DEHYDROGENASE [3]: 72 u/L
- LIPASE [3]: 12.67 u/L
- PHOSPHORUS [3]: 9.2 mg/dL
- POTASSIUM [3]: 5.83 MEQ/L
- SODIUM [3]: 144.83 MEQ/L
- TOTAL BILIRUBIN [3]: 0.1 mg/dL
- TOTAL PROTEIN [3]: 5.6 G/DL
- URIC ACID [3]: 0.7 mg/dL
